Results as given in patent US6395906B1, “Intermediates to pesticidal 1-arylpyrazoles” (Rhone-Poulenc Inc., priority 1995, dated 2002).

Legend:
Assay type in all cases: in vivo
[1] = system: black cutworm (Agrotis ipsilon); assay: Black cutworm (BCW) soil test; details: soil concentration 2.5, 5, 6.75 or 10 ppm; mortality eight days after infestation
Description: (§1) For the tick, aphids, souther armyworm, tobacco budworm, house fly, Mexican bean beetle, American cockroach, cat flea, souther corn rootworm, western corn rootworm, black cutworm, and southern root-knot nematode, a solution or suspension was prepared by adding the test compound to a solution of dimethylformamide, acetone, emulsifiers which are alkylaryl polyether alcohols organic sulfonates, and water. The result was a 100 or 500 ppm concentration of the test compound.
(§2) For southern corn rootworm and black cutworm tests, the water-acetone-DMF-emulsifier solution was adjusted for a treatment rate of 2.5, 5, 6.75 or 10 ppm.
(§3) Southern corn rootworm (SCRW), Black cutworm (BCW): Corn seeds were placed in a glass jar and covered with dry sandy loam soil. The 500 ppm test formulation was applied for a soil concentration of 2.5, 5, 6.75 or 10 ppm. As an untreated control, an aliquot of a water-acetone-DMF-emulsifier solution containing no test compound was applied in a similar manner. After incubating covered for 24 hours, the soil was mixed and inoculated with approximately 25 southern corn rootworm eggs. Following an additional 48 hours, two late second to early third instar black cutworms were placed in the jar with a portion of insect diet. Eight days after infestation, mortality was assessed visually for cutworm and by Berlese funnel extraction for rootworm.

[2] = system: southern corn rootworm (Diabrotica undecimpunctata howardi); assay: Southern corn rootworm (SCRW) soil test; details: soil concentration 2.5, 5, 6.75 or 10 ppm; mortality eight days after infestation
Description: as §1, §2, §3

[3] = system: tobacco budworm (Heliothis virescens); assay: Tobacco budworm (TBW) treated cotton leaf test; details: cotton leaves, 100 ppm; second instar larvae, five days
Description: as §1
Tobacco budworm (TBW): Cotton leaves were wet to runoff with the 100 ppm test compound formulation. As an untreated control, a water-acetone-DMF-emulsifier solution containing no test compound was also applied wet to runoff to cotton leaves. Ten randomly selected second instar tobacco budworm larvae were introduced into plastic containers in which moist dental wicks and the dry treated leaves had been placed. The cups were closed and held for five days. Larvae which were unable to move the length of the body, even upon stimulation by prodding, were considered dead.

[4] = system: house fly (Musca domestica); assay: House fly (HF) bait test; details: sucrose bait, 100 or 250 ppm; adult flies, mortality after 24 hours
Description: as §1
For house fly tests, the water-acetone-DMF-emulsifier solution was adjusted with a 20% by weight aqueous solution of sucrose to provide a final 100 or 250 ppm concentration of the test compound.
House fly (HF): Four to six day old adult house flies were used. The files were immobilized by anesthetizing with carbon dioxide. A bait cup was prepared which contained the 100 or 250 ppm test compound formulation/sucrose solution and one or two absorbent cotton pad(s). As an untreated control, a water-acetone-DMF-emulsifier-sucrose solution containing no test compound was applied in a similar manner. The bait cup was introduced inside the cage prior to admitting 12-25 anesthetized flies. Mortality was assessed after 24 hours.

[5] = system: western corn rootworm (Diabrotica virgifera virgifera); assay: Western corn rootworm (WCRW) soil test; details: soil concentration 0.15 or 0.5 ppm; neonate larvae, mortality six days after infestation
Description: as §1
For the western corn rootworm test, the water-acetone-DMF-emulsifier solution was adjusted for a treatment rate of 0.15 or 0.5 ppm.
Western corn rootworm (WCRW): The 500 ppm test formulation was applied to dry sandy loam soil contained in a glass jar for a soil concentration of 0.15 or 0.5 ppm. As an untreated control, an aliquot of a water-acetone-DMF-emulsifier solution containing no test compound was applied in a similar manner. After incubating covered for 24 hours, the soil was mixed and four germinated corn seedlings were added to the jar. Ten neonate western corn rootworm larvae were placed in the jar. Six days after infestation, mortality was assessed by Berlese funnel extraction.

[6] = system: cotton aphid (Aphis gossypii); assay: Cotton aphid systemic test (CA-Sys); details: soil drench 10.0 ppm, aphid control rated three and six days after infestation
Text: (§4) For cotton aphid systemic tests and black cutwork—systemic tests, the water-acetone-DMF-emulsifier solution was adjusted for a treatment rate of 10.0 ppm soil concentration.
Cotton aphid—systemic test (CA-Sys): Cotton seeds were placed on top of the soil surface in pots containing moist soil. The test compound solution was applied as a drench to the top of the soil and seeds for a treatment rate equivalent to 10.0 ppm soil concentration. As an untreated control, an aliquot of a water-acetone-DMF-emulsifier solution containing no test compound was applied in a similar manner. The soil surface and seeds were covered with moist soil. The pots were held in the greenhouse for the duration of the bioassay. When the cotyledons of the cotton were expanded (approximately 7 days after planting), the cotton was infested with approximately 25 cotton aphids (mixed population). The plant were rated for aphid control three and six days after infestation.

[7] = system: cotton aphid (Aphis gossypii); assay: Cotton aphid (CA) foliar spray test; details: cotton plants wet to runoff, 100 or 500 ppm; dead aphids counted after three days
Description: as §1
Buckthorn aphid (BA) or cotton aphid (CA): Adult and nymphal stages of buckthorn or cotton aphid were reared on potted dwarf nasturtium or cotton plants, respectively. Plants infested with 100-150 aphids were wet to runoff with the 100 or 500 ppm test compound formulation. As an untreated control, a water-acetone-DMF-emulsifier solution containing no test compound was also applied to runoff to infested plants. The treated plants were stored for one day for buckthorn aphid and three days for cotton aphid, after which the dead aphids were counted.

[8] = system: black cutworm (Agrotis ipsilon); assay: Black cutworm systemic test (BCW-Sys); details: soil drench 10.0 ppm, corn seedling clipped ten days after treatment; mortality 4 days after infestation
Text: as §4
Black cutworm—systemic test (BCW-Sys): Corn seeds were placed on top of the soil surface in pots containing moist soil. The test compound solution was applied as a drench to the top of the soil and seeds for a treatment rate equivalent to 10.0 ppm soil concentration. As an untreated control, an aliquot of water-acetone-DMF-emulsifier solution containing no test compound was applied in a similar manner. The soil surface and seeds were covered with moist soil. The pots were held in the greenhouse for the duration of the bioassay. Ten days after treatment, the corn seedling was clipped and placed in a plastic cup with 2 late second to early third instar black cutworm larvae. Mortality was assessed visually 4 days after infestation.

[9] = system: Mexican bean beetle (Epilachna varivestis); assay: Mexican bean beetle (MBB) treated bean leaf test; details: bean leaves, 100 or 500 ppm; second instar larvae, five days
Description: as §1
Southern armyworm (SAW), Mexican bean beetle (MBB): Bean leaves were wet to runoff with the 100 or 500 ppm test compound formulation. As an untreated control, a water-acetone-DMF-emulsifier solution containing no test compound was also applied wet to runoff to bean leaves. Five or six randomly selected second instar southern armyworn larvae or Mexican bean bettle larvae were introduced into each plastic container with the dry treated leaves. The container was closed and held for five days. Larvae which were unable to move the length of the body, even upon stimulation by prodding, were considered dead.

[10] = system: greenbug aphid (Schizaphis graminum); assay: Greenbug aphid systemic test (GA-Sys); details: soil drench 10 or 25 ppm, sorghum; aphid control rated one and three days after infestation
Text: For the greenbug aphid systemic test, the water-acetone-DMF-emulsifier solution was adjusted for a treatment rate of 10 or 25 ppm soil concentration.
Greenburg aphid—systemic test (GA-Sys): Sorghum seeds were placed on top of the soil surface in pots containing moist soil. The test compound solution was applied as a drench to the top of the soil and seeds for a treatment rate equivalent to 10 or 25 ppm soil concentration. As an untreated control, an aliquot of a water-acetone-DMF-emulsifier solution containing no test compound was applied in a similar manner. The soil surface and seeds were covered with moist soil. The pots were held in the greenhouse for the duration of the bioassay. When the sorghum seeds germinated, greenbug aphids were sprinkled evenly over the sorghum pots to about 50 aphids per pot. The plants were rated for aphid control one and three days after infestation.

[11] = system: cat flea (Ctenocephalides felis); assay: Cat flea (CF) treated filter paper contact test; details: 500 ppm, adult fleas, contact mortality 1 day after infestation
Description: as §1
Cat flea (CF), dog tick (DT): Filter papers were treated with an aliquot of the 500 ppm test formulation. As an untreated control, an aliquot of a water-acetone-DMF-emulsifier solution containing no test compound was applied in a similar manner. When dry, 2 treated filters were placed in a vial for the flea and another 2 filters in a vial for the tick. Five adult fleas were added to one vial and 5 adult ticks to the second vial. Contact mortality was assessed 1 day after infestation for the flea and 14 days after infestation for the tick.

[12] = system: American cockroach (Periplaneta americana); assay: American cockroach (ACR) treated food pellet test; details: food pellets with 500 ppm formulation; nymphs, contact and feeding mortality 1 and 5 days after infestation
Description: as §1
American cockroach (ACR): Cat food or dog food pellets were added to jars containing 1-2 mls of the 500 ppm test formulation. As an untreated control, an aliquot of a water-acetone-DMF-emulsifier solution containing no test compound was applied in a similar manner. After 48 hours, roach nymphs were added to the jar. Contact and feeding mortally was assessed 1 and 5 days after infestation.

Structure (SMILES)	BCW [1]	SCRW [2]	TBW [3]	HF [4]	WCRW [5]	CA-Sys [6]	CA [7]	BCW-Sys [8]	MBB [9]	GA-Sys [10]	CF [11]	ACR [12]
N#Cc1nn(-c2c(Cl)cc(C(F)(F)F)cc2Cl)c(C=NN)c1SC(F)(F)F [Compound 3, 5-{(N-amino)iminomethylidenyl}-3-cyano-1-(2,6-dichloro-4-trifluoromethylphenyl)-4-trifluoromethylthiopyrazole]	+ (active against 1 or more insects described above up to 100% mortality. This activity is indicated by a “+”)	+ (active against 1 or more insects described above up to 100% mortality. This activity is indicated by a “+”)	+ (active against 1 or more insects described above up to 100% mortality. This activity is indicated by a “+”)	+ (active against 1 or more insects described above up to 100% mortality. This activity is indicated by a “+”)	–	–	–	–	–	–	–	–
CON=Cc1c(SC(F)(F)F)c(C#N)nn1-c1c(Cl)cc(C(F)(F)F)cc1Cl [Compound 5, 3-Cyano-1-(2,6-dichloro-4-trifluoromethylphenyl)-5-{(N-methoxy)iminomethylidenyl}-4-trifluoromethylthiopyrazole]	–	+ (active against 1 or more insects described above up to 100% mortality. This activity is indicated by a “+”)	–	+ (active against 1 or more insects described above up to 100% mortality. This activity is indicated by a “+”)	+ (active against 1 or more insects described above up to 100% mortality. This activity is indicated by a “+”)	+ (active against 1 or more insects described above up to 100% mortality. This activity is indicated by a “+”)	+ (active against 1 or more insects described above up to 100% mortality. This activity is indicated by a “+”)	–	–	–	–	–
CC(=O)c1c([S+]([O-])C(F)(F)F)c(C#N)nn1-c1c(Cl)cc(C(F)(F)F)cc1Cl (stereo not shown) [Compound 10, 5-Acetyl-3-cyano-1-(2,6-dichloro-4-trifluoromethylphenyl)-4-trifluoromethylsulfinylpyrazole]	+ (active against 1 or more insects described above up to 100% mortality. This activity is indicated by a “+”)	–	+ (active against 1 or more insects described above up to 100% mortality. This activity is indicated by a “+”)	–	+ (active against 1 or more insects described above up to 100% mortality. This activity is indicated by a “+”)	–	–	+ (active against 1 or more insects described above up to 100% mortality. This activity is indicated by a “+”)	+ (active against 1 or more insects described above up to 100% mortality. This activity is indicated by a “+”)	+ (active against 1 or more insects described above up to 100% mortality. This activity is indicated by a “+”)	–	–
CCOC(OCC)c1c(S(=O)(=O)C(F)(F)F)c(C#N)nn1-c1c(Cl)cc(C(F)(F)F)cc1Cl [Compound 19, 3-Cyano-1-(2,6-dichloro-4-trifluoromethylphenyl)-5-diethoxymethyl-4-trifluoromethylsulfonylpyrazole]	–	–	+ (active against 1 or more insects described above up to 100% mortality. This activity is indicated by a “+”)	–	–	–	–	–	–	–	+ (active against 1 or more insects described above up to 100% mortality. This activity is indicated by a “+”)	+ (active against 1 or more insects described above up to 100% mortality. This activity is indicated by a “+”)
CCOC(OCC)c1c([S+]([O-])C(F)(F)F)c(C#N)nn1-c1c(Cl)cc(C(F)(F)F)cc1Cl (stereo not shown) [Compound 20, 3-Cyano-1-(2,6-dichloro-4-trifluoromethylphenyl)-5-diethoxymethyl-4-trifluoromethylsulfinylpyrazole]	–	–	–	–	–	+ (active against 1 or more insects described above up to 100% mortality. This activity is indicated by a “+”)	+ (active against 1 or more insects described above up to 100% mortality. This activity is indicated by a “+”)	–	–	–	+ (active against 1 or more insects described above up to 100% mortality. This activity is indicated by a “+”)	+ (active against 1 or more insects described above up to 100% mortality. This activity is indicated by a “+”)
